ChEMBL document CHEMBL1201862, “PubChem BioAssay data set” (2004)
Calls of active or inactive are those of the source.

Key:
[1] = growth inhibition of MALME3 cells – cell-based, CellTiter-Glo luminescence, dry powder, set 5, orthogonal assay for MITF inhibitor project, dose response (AID 651584); format: functional; details: MALME-3
[2] = MITF Measured in Cell-Based System Using Plate Reader - 2084-01_Inhibitor_Dose_DryPowder_Activity_Set7.; format: functional
[3] = MITF Orthogonal Assay: SK-MEL-5 CTG Assay Measured in Cell-Based System Using Plate Reader - 2084-02_Inhibitor_Dose_DryPowder_Activity_Set5.; format: functional
[4] = viability loss in MITF-independent A375 cells – cell-based, CellTiter-Glo luminescence, dry powder, set 6, counter-screen for MITF inhibitor project, dose response (AID 624488); format: functional; details: A-375
[5] = inhibitors of TRPM1-promoter reporter in SK-MEL-5 – cell-based, luciferase, dry powder, set 9, MITF inhibitor project, dose response (AID 651588); format: functional
[6] = cytotoxicity in MITF-independent A375 cells – cell-based, CellTiter-Glo luminescence, dry powder, set 4, counter-screen for MITF inhibitor project, dose response (AID 624364); format: functional; details: A-375;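 also: A375 melanoma cells are MITF independent so this is a counter screen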
[7] = MITF Orthogonal Assay: MALME3 CTG Assay Measured in Cell-Based System Using Plate Reader - 2084-04_Inhibitor_Dose_DryPowder_Activity_Set6.; format: functional; details: MALME-3
[8] = cytotoxicity in melanoma parental cells – cell-based, CellTiter-Glo, dry powder, set 6, MITF inhibitor project, dose response (AID 624429); format: functional; details: SK-MEL-5
[9] = growth inhibition of SK-MEL-5 melanoma cells – cell-based, CellTiter-Glo luminescence, dry powder, set 8, orthogonal assay for MITF inhibitor project, dose response (AID 651586); format: functional
[10] = MITF Measured in Cell-Based System Using Plate Reader - 2084-01_Inhibitor_Dose_DryPowder_Activity_Set6.; format: functional
[11] = melanocyte viability loss, MITF-dependent cells, cell-based, plate reader, dry powder, cytotoxicity control, dose response (AID 651920); format: functional
[12] = cytotoxicity in MITF-independent A375 cells – cell-based, CellTiter-Glo luminescence, dry powder, set 9, counter-screen for MITF modulator project, dose response (AID 651591); format: functional; details: A-375
[13] = viability loss in MITF-independent A375 cells – cell-based, CellTiter-Glo luminescence, dry powder, set 7, counter-screen for MITF inhibitor project, dose response (AID 624490); format: functional; details: A-375
[14] = molecular target: Heat shock protein HSP 90-alpha (Homo sapiens, UniProt P07900); assay: Luminescence-based dose response biochemical high throughput screening assay for inhibitors of the Heat Shock Protein 90 (HSP90). [Related pubchem assays: 1831 (Summary AID.), 1846 (Confirmation screen.), 1789 (Primary screen.)]
[15] = molecular target: Mitogen-activated protein kinase 10 (Homo sapiens, UniProt P53779); assay: Dose response biochemical screening assay for inhibitors of c-Jun N-Terminal Kinase 3 (JNK3). [Related pubchem assays: 746 ]
[16] = molecular target: T1, Heat shock factor protein 1 (Mus musculus, UniProt P38532); assay: enhancement of HSF1-driven luciferase signal – cell-based, NIH3T3, luminescence, dose retest, confirmation (AID 435004); format: functional;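 also: stress induced by proteasome inhibitor MG132 added 30 min after compound; luciferase reporter driven by HSF1 response element in NIH3T3 cells; actives raise luminescence as potentiators of the MG132 stress response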
T1 sequence (P38532 whole entry): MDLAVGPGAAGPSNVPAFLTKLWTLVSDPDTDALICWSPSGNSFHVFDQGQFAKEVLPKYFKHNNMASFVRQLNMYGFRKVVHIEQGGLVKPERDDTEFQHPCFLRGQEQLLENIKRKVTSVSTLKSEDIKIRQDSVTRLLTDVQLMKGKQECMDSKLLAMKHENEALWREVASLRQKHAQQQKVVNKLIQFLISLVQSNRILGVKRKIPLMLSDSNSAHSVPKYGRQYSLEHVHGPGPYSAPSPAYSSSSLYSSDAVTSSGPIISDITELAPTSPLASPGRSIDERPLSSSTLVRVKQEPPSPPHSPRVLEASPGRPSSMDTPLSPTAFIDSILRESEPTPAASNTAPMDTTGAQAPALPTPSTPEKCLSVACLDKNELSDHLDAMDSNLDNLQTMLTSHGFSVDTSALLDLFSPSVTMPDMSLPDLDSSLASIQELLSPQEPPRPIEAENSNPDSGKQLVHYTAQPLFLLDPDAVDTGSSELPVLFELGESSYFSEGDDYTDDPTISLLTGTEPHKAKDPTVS

[17] = molecular target: E3 ubiquitin-protein ligase Mdm2 (Homo sapiens, UniProt Q00987); assay: MDM2-luc reporter signal enhancers, multi-concentration potency testing, MDM2 ubiquitin-protein ligase inhibitor program, whole-cell format, luminescence detection, 384-well microplate (AID 1394); format: functional;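 also: MDM2 E3 inhibitors raise luminescence so EC50 is for signal enhancement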
[18] = P. falciparum Dd2 growth inhibitors, dose response, SYBR Green, cherry-picked samples (AID 1159567); format: functional, cell-based
[19] = toxicity to human hepatoma HepG2 cells – cell-based, cherry-picked samples, cytotoxicity control, dose response (AID 1159577); format: functional
[20] = viability inhibitors of stage V gametocytes – luminescence, dose response (AID 1117278); format: functional, cell-based;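 also: gametocytes exposed to compound for 24 hours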
[21] = viability loss in human Jurkat cells – cell-based, luminescence, cytotoxicity control for P. falciparum gametocyte viability project, dose response (AID 1117277); format: functional;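 also: potency reflects loss of cellular ATP meaning fewer viable cells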
Phospholipase A2 = Phospholipase A2 (Homo sapiens, UniProt P04054); format: functional;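 also: confirmatory dose-response counterscreen on phospholipase A2, testing hits that came from an ultra-high-throughput screen for ATG4B inhibitors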
[22] = molecular target: T2, Zinc finger protein mex-5 (Caenorhabditis elegans, UniProt Q9XUB2); assay: potency of MEX-5 RNA-binding blockers – biochemical, C. elegans, fluorescence polarization, dose response (AID 1960)
T2 sequence (Q9XUB2 whole entry): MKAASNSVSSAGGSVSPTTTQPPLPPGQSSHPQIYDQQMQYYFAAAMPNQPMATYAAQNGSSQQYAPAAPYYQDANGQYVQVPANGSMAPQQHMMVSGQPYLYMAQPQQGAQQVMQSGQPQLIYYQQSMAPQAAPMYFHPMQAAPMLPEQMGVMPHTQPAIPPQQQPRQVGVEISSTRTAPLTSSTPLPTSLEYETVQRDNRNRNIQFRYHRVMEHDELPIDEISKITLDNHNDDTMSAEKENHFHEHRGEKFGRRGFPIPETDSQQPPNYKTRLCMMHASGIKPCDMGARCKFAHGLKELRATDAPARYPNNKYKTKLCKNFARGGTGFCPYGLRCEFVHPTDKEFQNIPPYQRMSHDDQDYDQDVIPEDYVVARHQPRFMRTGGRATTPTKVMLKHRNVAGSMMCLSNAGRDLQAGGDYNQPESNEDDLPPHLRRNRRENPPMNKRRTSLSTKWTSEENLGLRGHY

[23] = molecular target: Bifunctional protein GlmU (Mycobacterium tuberculosis, UniProt P9WMN3); assay: Inhibitors of Mycobacterial Glucosamine-1-phosphate acetyl transferase (GlmU). Secondary screen.; set-up: species or system Mycobacterium tuberculosis H37Rv
[24] = molecular target: T3, RNA-binding protein pos-1 (Caenorhabditis elegans, UniProt G5EF15); assay: disruptors of C. elegans POS-1 RNA interaction – biochemical, fluorescence polarization, dose response (AID 1964);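 also: purified POS-1 fused to maltose binding protein made in E. coli; potency of compounds blocking POS-1 binding to fluorescent RNA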
T3 sequence (G5EF15 whole entry): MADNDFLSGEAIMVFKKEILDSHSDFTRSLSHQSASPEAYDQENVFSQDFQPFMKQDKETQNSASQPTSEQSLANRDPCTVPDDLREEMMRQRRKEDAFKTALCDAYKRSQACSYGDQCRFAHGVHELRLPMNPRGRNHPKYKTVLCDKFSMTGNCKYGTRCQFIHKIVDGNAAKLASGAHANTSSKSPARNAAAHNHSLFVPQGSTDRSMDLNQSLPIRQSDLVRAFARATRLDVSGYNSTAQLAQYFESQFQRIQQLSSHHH

Cysteine protease ATG4B = molecular target: T4, Cysteine protease ATG4B (Homo sapiens, UniProt Q9Y4P1); format: functional;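 also: Fluorescence-based dose-response confirmation assay measuring inhibition of ATG4B activity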
T4 sequence (Q9Y4P1 whole entry): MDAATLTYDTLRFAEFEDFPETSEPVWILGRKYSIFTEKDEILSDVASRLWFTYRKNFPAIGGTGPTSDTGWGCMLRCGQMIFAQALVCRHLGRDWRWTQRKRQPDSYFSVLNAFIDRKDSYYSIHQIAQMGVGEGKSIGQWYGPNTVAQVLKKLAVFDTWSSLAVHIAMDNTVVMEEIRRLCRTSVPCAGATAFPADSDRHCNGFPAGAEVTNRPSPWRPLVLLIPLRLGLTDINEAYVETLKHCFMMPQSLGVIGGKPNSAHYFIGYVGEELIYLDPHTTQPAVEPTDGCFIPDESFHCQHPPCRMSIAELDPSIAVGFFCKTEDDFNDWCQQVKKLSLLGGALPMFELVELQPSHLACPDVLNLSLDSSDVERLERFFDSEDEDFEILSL

Aminopeptidase N = molecular target: T5, Aminopeptidase N (Plasmodium falciparum FcB1/Columbia, UniProt O96935); assay: malaria alanyl aminopeptidase activity blockers – biochemical, fluorogenic H-Leu-NHMec substrate, 1536-well (AID 1445); set-up: species or system Plasmodium falciparum 3D7, 3D7
T5 sequence (O96935 whole entry): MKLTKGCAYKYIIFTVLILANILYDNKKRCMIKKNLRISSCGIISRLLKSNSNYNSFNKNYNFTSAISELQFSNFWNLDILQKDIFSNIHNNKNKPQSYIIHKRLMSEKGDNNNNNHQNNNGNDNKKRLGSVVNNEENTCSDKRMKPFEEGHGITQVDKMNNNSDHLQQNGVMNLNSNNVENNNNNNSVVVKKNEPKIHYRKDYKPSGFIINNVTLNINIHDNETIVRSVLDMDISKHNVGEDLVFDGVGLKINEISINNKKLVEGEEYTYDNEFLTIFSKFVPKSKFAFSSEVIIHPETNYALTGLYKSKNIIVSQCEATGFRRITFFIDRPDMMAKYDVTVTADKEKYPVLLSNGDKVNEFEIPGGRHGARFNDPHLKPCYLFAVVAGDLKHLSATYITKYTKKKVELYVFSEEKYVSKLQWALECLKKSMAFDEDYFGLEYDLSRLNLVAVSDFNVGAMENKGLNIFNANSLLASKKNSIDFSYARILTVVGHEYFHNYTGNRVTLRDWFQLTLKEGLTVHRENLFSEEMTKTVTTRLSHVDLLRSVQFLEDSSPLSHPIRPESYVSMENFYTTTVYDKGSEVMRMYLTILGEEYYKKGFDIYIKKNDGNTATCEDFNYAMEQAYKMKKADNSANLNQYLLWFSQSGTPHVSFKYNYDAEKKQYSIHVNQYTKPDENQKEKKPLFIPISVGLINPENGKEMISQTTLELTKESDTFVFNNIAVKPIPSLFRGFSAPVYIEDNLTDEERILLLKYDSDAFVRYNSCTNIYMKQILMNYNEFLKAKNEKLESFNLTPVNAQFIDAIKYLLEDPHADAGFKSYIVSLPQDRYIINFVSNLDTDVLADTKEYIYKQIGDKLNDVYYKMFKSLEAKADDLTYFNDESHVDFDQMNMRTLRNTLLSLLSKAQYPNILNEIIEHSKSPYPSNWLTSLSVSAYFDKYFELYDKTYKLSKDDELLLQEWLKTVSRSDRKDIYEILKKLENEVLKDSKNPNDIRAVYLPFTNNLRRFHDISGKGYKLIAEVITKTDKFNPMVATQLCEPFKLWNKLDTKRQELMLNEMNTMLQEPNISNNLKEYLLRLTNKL

[25] = molecular target: DNA (cytosine-5)-methyltransferase 1 (Homo sapiens, UniProt P26358); assay: inhibition of DNA methylation by DNMT1 – biochemical, fluorescent molecular beacon, confirmation (AID 602386); format: functional
Major prion protein = Major prion protein (Homo sapiens, UniProt P04156); format: functional, cell-based
H9c2 = assay: cells; format: functional, cell-based; details: Rattus norvegicus, H9c2, Myocardium;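 also: confirmatory concentration-response retest of ultra-high-throughput screening hits for modulation of myocardial damage; cell death induced by hydrogen peroxide oxidative stress; compound pretreatment for 60 min then peroxide exposure for 2 h; potency is for protecting the cells against peroxide damage rather than for killing them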

O=C1C(NS(=O)(=O)c2cccs2)=C(c2ccccc2)C(=O)c2ccccc21
AC50 [1]: > 70 µM (inactive) | AC50 [2]: 39.1 µM (active) | AC50 [3]: 65.9 µM (active) | AC50 [4]: > 70 µM (inactive) | AC50 [5]: > 70 µM (inactive) | AC50 [6]: > 70 µM (inactive) | AC50 [7]: > 70 µM (inactive) | AC50 [8]: > 70 µM (inactive) | AC50 [9]: > 70 µM (inactive) | AC50 [10]: 45.7 µM (active) | AC50 [11]: > 70 µM (inactive) | AC50 [12]: > 70 µM (inactive) | AC50 [13]: > 70 µM (inactive)

Nc1cc(-c2ccccc2)ccc1O
IC50 [14]: 3.39 µM (active)

C/C(=N/Cc1ccco1)C1=C(O)c2ccccc2C1=O
IC50 [15]: 30.9 µM (not active) | EC50 [16]: > 260 µM (inactive)

Cc1nc(CSc2nsc(/C=C/N(C)C)c2C#N)cs1
EC50 [17]: 19.8 µM (not active)

C/C=C/c1ccc([C@@H]2[C@@H]3CN(Cc4ccc5c(c4)OCO5)C[C@H]2N3)cc1
AC50 [18]: 4.09 µM (active) | AC50 [19]: 11.8 µM (active)

COc1ccc(-c2[nH]ncc2-c2csc(C)n2)c(O)c1
IC50 [20]: > 109 µM (inactive) | IC50 [21]: > 83.3 µM (inactive)

CO[C@H]1CN(C)C(=O)c2cc(NC(=O)c3ccc(Oc4ccccc4)cc3)ccc2OC[C@@H](C)NC[C@@H]1C
AC50 [18]: 6.05 µM (active) | AC50 [19]: > 39 µM (inactive)

CCOC(=O)c1csc(NC(=O)c2cc3ccccc3o2)n1
IC50 [14]: 0.784 µM (active)

CC(C)c1nc2oc3c(O)ncnc3c2c2c1CCC2
IC50 [20]: > 109 µM (inactive) | IC50 [21]: > 83.3 µM (inactive)

O=C(O)c1ccc(-c2ccc(/C=C3\NC(=O)N(Cc4ccc(Cl)cc4)C3=O)o2)cc1Cl
IC50 (Phospholipase A2): 16.1 µM (active) | EC50 [22]: 23.5 µM (active) | IC50 [23]: 67.1 µM (active) | EC50 [24]: 29.4 µM (active) | IC50 (Cysteine protease ATG4B): 16.2 µM (active) | IC50 (Aminopeptidase N): 40.8 µM (active) | IC50 [25]: 4.54 µM (active)

Brc1ccc(-c2nn3c(-c4ccco4)nnc3s2)o1
IC50 (cells): > 138 µM (inactive) | IC50 [15]: 58 µM (not active) | IC50 (Major prion protein): 4.14 µM (active) | IC50 (H9c2): > 79 µM (inactive)
